Some test systems named below: HCC-2998 colon; SF-539 CNS; A498 renal; SNB-78 CNS; HS 578T breast; MDA-MB-435; T-47D breast; MDA-N; PC-3 prostate; DU-145 prostate.
Common to all, as to assay: DTP human tumour cell line panel, 48 h

Several values for one entry are separate records, joined by “and”; a condition that tells them apart may be missing. Identical values can stand only once.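 Values below derive from 48-hour exposures of cells grown in 96-well plates, with endpoints linearly interpolated between the two concentrations bracketing the appropriate inhibition level. GI50 marks 50% less growth. The concentration for full growth arrest is given as TGI.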

This is an account of results in PubChem BioAssay (NCI).

For orientation: TGI means the concentration at which net growth stops. Low values mean more potent growth arrest, high ones less potent growth arrest. For `NC(=O)CCCC(NCc1c2ccccc2nc2ccccc12)C(=O)O` (centres undefined), the concentration for total growth inhibition (TGI) with HCC-2998 colon and in the assay on SF-539 CNS was above 100 µM in each case.
For `CCCCCCCSc1nc2c(C(=O)OCC)ncn2c2ccccc12`, in the assay with HCC-2998 colon, the TGI is above 100 µM.
On to `N#CC(c1ccccc1)c1nc2ccc(=N)cc-2n(O)c1C(C#N)c1ccccc1` (centres undefined), for which the TGI in the assay on A498 renal, in the assay on SNB-78 CNS and in the assay on SF-539 CNS was above 100 µM throughout.
Consider `COC(=O)C1=CSC2(S1)C(C(=O)OC)=CSc1c2ssc1=Nc1ccccc1` (centres undefined), for which the TGI in the assay with A498 renal was 6.54 µM; with HS 578T breast, 8.34 µM; in the assay on MDA-MB-435, 5.09 µM; in the assay on T-47D breast, above 100 µM; in the assay on HCC-2998 colon, 4.25 µM; with MDA-N, above 100 µM. Also, the figures for the TGI in the assay with PC-3 prostate, in the assay with DU-145 prostate and in the assay with SF-539 CNS were above 100 µM, 16.2 µM and 2.96 µM, respectively.
`O=c1oc2ccccc2c2c(=O)c3ccc(OC/C(=N/O)c4ccc(Cl)cc4)cc3oc12`: the TGI in the assay with A498 renal was 15.6 µM; with HS 578T breast it was 42.1 µM; in the assay with MDA-MB-435, 7.89 µM; with T-47D breast, 88.4 µM; with MDA-N, 10.9 µM; with PC-3 prostate it was 24.5 µM. The values for the TGI in the assay on DU-145 prostate and in the assay on SF-539 CNS were 36.1 µM and 23.8 µM, respectively.
On to `CN(C)CCNc1nc(-c2ccc3ccccc3c2)nc2nc[nH]c12`, for which the TGI with HS 578T breast was found to be 22.8 µM; in the assay on MDA-MB-435, 25 µM; in the assay with T-47D breast it was 29.7 µM; with HCC-2998 colon it was 10.6 µM; with MDA-N, 23.2 µM; with PC-3 prostate, 18.4 µM. The TGI with DU-145 prostate was 23.7 µM.
`Cc1ccc(S(=O)(=O)NCCSCCNS(=O)(=O)c2ccc(C)cc2)cc1`: the TGI with A498 renal, in the assay on HS 578T breast, in the assay on MDA-MB-435, in the assay on T-47D breast, in the assay with HCC-2998 colon and in the assay with MDA-N was above 100 µM throughout. Also, the TGI in the assay on PC-3 prostate and in the assay with DU-145 prostate was above 100 µM in each case.
Turning to `Cc1ccc(Oc2ccc(C)cc2[N+](=O)[O-])cc1`, the TGI was above 100 µM with A498 renal, 95 µM with SNB-78 CNS, above 100 µM with HCC-2998 colon and above 100 µM in the assay with SF-539 CNS.
The GI50 is the concentration at which growth is held to half of that of the control. For `CC(=O)C(O)N1C(=O)C=CC1=O` (centres undefined), the TGI in the assay with A498 renal was > 25 µM and 31.3 µM and 39 µM; in the assay with SNB-78 CNS it was 37 µM and 54.9 µM; in the assay with T-47D breast, above 25 µM; in the assay with MDA-N, 25 µM. Further, the GI50 in the assay on HS 578T breast is 15800 µM; in the assay on SNB-78 CNS, 19.9 µM; in the assay with MDA-MB-435, 10700 µM; in the assay with PC-3 prostate, 2470 µM; with DU-145 prostate it was 11700 µM.
As for `CC(=O)Nc1ccccc1SCCSSCCSc1ccccc1NC(C)=O`, the TGI in the assay with MDA-MB-435 is 41.1 µM; with T-47D breast it was 92.9 µM; with HCC-2998 colon, 50.8 µM; in the assay with MDA-N it was 68.7 µM; with PC-3 prostate, above 100 µM; in the assay with DU-145 prostate, 88.7 µM. In the assay with SF-539 CNS, the TGI stood at 52.1 µM.
With `CN(C)c1ccc(/C=N\NC(=O)CSCC(=O)N/N=C/c2ccc(N(C)C)cc2)cc1`, the TGI in the assay with HS 578T breast was 82.1 µM; in the assay with MDA-MB-435, above 100 µM; in the assay on T-47D breast, 88.6 µM; in the assay on PC-3 prostate, above 100 µM; in the assay on DU-145 prostate, above 100 µM; in the assay on SF-539 CNS, above 100 µM.
As for `O=c1ccc2cc(O)c(O)cc2o1`, the TGI with A498 renal, in the assay on HS 578T breast, in the assay with MDA-MB-435, in the assay on T-47D breast, with HCC-2998 colon and with MDA-N was above 100 µM each time. Besides, the TGI in the assay on PC-3 prostate, in the assay with DU-145 prostate and in the assay with SF-539 CNS was above 100 µM throughout.
As for `NC(=O)NN=C(CS)CS`, the TGI was 23.4 µM in the assay on A498 renal, above 100 µM in the assay on SNB-78 CNS, above 77.5 µM in the assay on HCC-2998 colon and 40.7 µM in the assay on SF-539 CNS.
Take `O=C(O[C@H]1[C@@H](O)[C@H](n2cnc3c(Cl)ncnc32)O[C@@H]1COC(c1ccccc1)(c1ccccc1)c1ccccc1)c1ccccc1`: the TGI with A498 renal is 31 µM; in the assay with HS 578T breast, 8.78 µM; in the assay with MDA-MB-435, above 100 µM; in the assay with T-47D breast, 24.9 µM; in the assay with HCC-2998 colon, 41.9 µM; in the assay on MDA-N, above 100 µM. The TGI in the assay with PC-3 prostate came out at 24.5 µM; in the assay on DU-145 prostate, 3.85 µM; with SF-539 CNS it was 47.3 µM.
On to `CCCN(C(=O)c1c(Cl)nnc(Cl)c1C(=O)c1cc(Cl)nnc1Cl)c1cc(Cl)nnc1Cl`, for which the TGI in the assay with A498 renal is 33.1 µM; in the assay with HS 578T breast, 14.9 µM; in the assay on MDA-MB-435, 37 µM; in the assay on T-47D breast it was 23 µM; in the assay with HCC-2998 colon it was 32.3 µM; with MDA-N it was 30 µM. For the same compound, the TGI turned out to be 22.2 µM with PC-3 prostate, 27.6 µM in the assay on DU-145 prostate and 40 µM in the assay on SF-539 CNS.
On to `C/C=C/[P+](c1ccccc1)(c1ccccc1)c1ccccc1`, for which the TGI is 41.3 µM in the assay with A498 renal; 3.17 µM with HS 578T breast; 5.97 µM in the assay with MDA-MB-435; 1.43 µM in the assay on T-47D breast; 3.82 µM with HCC-2998 colon; 10.6 µM in the assay with MDA-N. Moreover, the TGI with PC-3 prostate is above 63.8 µM; in the assay with DU-145 prostate it was 18.6 µM; with SF-539 CNS, 16.7 µM.
